The target in the assay is T1, AR (Homo sapiens, UniProt P10275, T878A).
T1 sequence (P10275 1-920 T878A): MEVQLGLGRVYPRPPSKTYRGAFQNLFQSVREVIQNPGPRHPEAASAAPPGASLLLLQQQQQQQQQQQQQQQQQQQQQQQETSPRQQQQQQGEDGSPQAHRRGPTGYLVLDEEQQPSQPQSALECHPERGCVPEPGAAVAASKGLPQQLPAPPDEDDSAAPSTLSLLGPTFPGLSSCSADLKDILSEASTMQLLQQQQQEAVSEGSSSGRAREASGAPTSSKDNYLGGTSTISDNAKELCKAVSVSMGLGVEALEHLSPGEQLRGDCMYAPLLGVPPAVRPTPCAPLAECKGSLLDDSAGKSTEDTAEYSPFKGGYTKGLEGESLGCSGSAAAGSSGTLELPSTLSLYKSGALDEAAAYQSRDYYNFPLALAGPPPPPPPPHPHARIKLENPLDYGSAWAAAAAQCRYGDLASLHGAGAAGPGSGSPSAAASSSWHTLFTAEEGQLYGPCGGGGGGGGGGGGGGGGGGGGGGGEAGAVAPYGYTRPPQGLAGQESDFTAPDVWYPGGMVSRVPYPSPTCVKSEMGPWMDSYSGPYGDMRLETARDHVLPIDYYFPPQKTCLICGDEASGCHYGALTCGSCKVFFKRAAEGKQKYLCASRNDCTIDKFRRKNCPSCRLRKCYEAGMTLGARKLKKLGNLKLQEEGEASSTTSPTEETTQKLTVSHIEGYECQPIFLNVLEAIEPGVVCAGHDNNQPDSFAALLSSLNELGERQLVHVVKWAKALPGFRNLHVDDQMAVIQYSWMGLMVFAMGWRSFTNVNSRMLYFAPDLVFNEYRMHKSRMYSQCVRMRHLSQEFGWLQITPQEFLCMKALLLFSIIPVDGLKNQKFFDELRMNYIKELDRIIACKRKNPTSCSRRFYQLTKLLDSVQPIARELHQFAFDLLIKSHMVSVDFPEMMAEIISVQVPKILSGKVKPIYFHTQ
Description: Effects of compounds on AR expression in LNCaP cells (ELISA, DC50). The format is cell-based. On the set-up: Measurement of the Effects of Drugs on the Expression of AR in Cells by ELISA Method; endogenous in cells; host or cells: LNCaP. As to conditions: 24 hours of drug treatment, AR by ELISA. The method, then:
Activity Assay Example 1: Effects of Compounds on AR Expression in LNCaP Cells
1. Cell Line and Cell Culture
Human prostate cancer cells LNCaP (Shanghai Chinese Academy of Sciences Cell Bank). LNCaP was cultured in 1640 medium containing 10% fetal bovine serum. The cells grow in clusters, with weak adhesion to the bottom of the culture flask, slow proliferation, with a multiplication time of 72 h. The cells are closely adhered to each other and need to be digested with 0.05% trypsin containing 0.025% EDTA. The cells were passaged every 3 days. The cells were cultured at 37° C. and 5% CO2 in a humidified incubator
2. Cell plating: The supernatant was discarded, and the Lncap cells in the logarithmic growth phase were taken, washed with PBS once, and added with appropriate 0.05% trypsin digestion solution to be fully digested into single cell suspension, and centrifuged, resuspended and counted to make the number of cells about 15,000 per well, then inoculated in a 96-well plate, placed at 37° C., 5% CO2 and cultured overnight for 24 h.
3. Preparation and Addition of Compound Solutions
About 2 mg of each compound was weighed and dissolved in DMSO to make the stock solution with a concentration of 10 mmol/L. Dilution process (final concentration dilution: 2, 0.667, 0.222, 0.074, 0.0245, 0.008, 0.003, 0.001, 0.0003, 0.0001 μmol/L): 10 centrifuge tubes with a volume of 1.5 mL were taken and numbered 1, 2, 3, 4, 5, 6, 7, 8, 9, and 10, 80 μL DMSO was added to tube No. 1, and 60 μL DMSO was added to tubes No. 2 to No. 10, 20 μL of the stock solution was pipetted to tube No. 1 and mixed well; 30 μL was pipetted from tube No. 1 into tube No. 2 and mixed well. 30 μL was pipetted from tube No. 2 into tube No. 3 and mixed well, and so forth, to obtain samples No. 4-10, and to obtain working solutions of compounds of different concentrations respectively. 2 μL was pipetted from the above-mentioned tubes No. 1-10 into each corresponding sterile deep-well plates, added with 198 μL of culture medium, and mixed well. 11 ul was added to each well of the 96-well cell plate cultured overnight to obtain the corresponding desired concentrations (2, 0.667, 0.222, 0.074, 0.0245, 0.008, 0.003, 0.001, 0.0003, 0.0001 μmol/L).
4. Measurement of the Effects of Drugs on the Expression of AR in Cells by ELISA Method
After 24 hours of drug treatment, the supernatant was removed, and 200 μL of PBS was added to wash cells, and then the supernatant was removed, and 100 μL of cell lysate was added to lyse cells on ice for 20 min, then the cell lysate was centrifuged at 4000 rpm for 20 min at 4° C. and the supernatant was taken for later use. The measurement steps of the supernatant were according to the ELISA kit instructions:
4.1 The slats required for the test were taken out from the sealed bag that has been equilibrated to room temperature. Please put the unused slats and desiccant back into the aluminum foil bag and compress the self-sealing strip, seal the bag, and store at 4° C.
4.2 Standards and sample diluents were added to blank wells, and different concentrations of standards (10 ul/well) and sample diluents (90 ul/well) were added to the remaining corresponding wells, and the reaction wells were sealed with sealing tape, and refrigerated at 4° C. overnight.
4.3 Primary antibody was diluted with dilution buffer to the corresponding concentration and added to each well in 100 ul/well. The reaction wells were sealed with sealing tape and incubated at 37° C. for 60 min.
4.4 Secondary antibody was diluted with dilution buffer to the corresponding concentration and added to each well in 100 ul/well. The reaction wells were sealed with sealing tape and incubated at 37° C. for 30 min.
4.5 The reaction wells were added with 100 ul/well of substrate (TMB) and incubated at room temperature for 30 min.
4.6 The reaction wells were added with 100 ul/well of stop solution, mixed well and then the OD450 value was measured with a microplate reader. […]
(ELISA stands for enzyme-linked immunosorbent assay.)

Where only a bound is given, the exact number is not on record here.

The text below walks through data of US12606552B2, “Bifunctional compound, preparation method therefor, and use thereof” (SUZHOU KINTOR PHARMACEUTICALS, INC., priority 2020, dated 2026).

Compound `CNC(=O)c1ccc(-c2c[nH]c([C@@H]3C[C@@H](O)CN3C(=O)[C@@H](NC(=O)COCCCCOc3ccc(-c4ncc(N5C(=S)N(c6ccc(C#N)c(C(F)(F)F)c6F)C(=O)C5(C)C)cc4F)c(C(F)(F)F)c3)C(C)(C)C)n2)cc1` [Compound A235] came in with a DC50 of 0.125 µM.
Then `Cc1ncsc1-c1ccc(CNC(=O)[C@@H]2C[C@@H](O)CN2C(=O)[C@@H](NC(=O)COc2ccc(-c3ccc(N4C(=S)N(c5ccc(C#N)c(C(F)(F)F)c5F)C(=O)C4(C)C)cn3)cc2)C(C)(C)C)cc1` [Compound A48], with > 2 µM; and `Cc1ncsc1-c1ccc(CNC(=O)[C@@H]2C[C@@H](O)CN2C(=O)[C@@H](NC(=O)CN2CCN(CCc3ccc(-c4ccc(N5C(=S)N(c6ccc(C#N)c(C(F)(F)F)c6F)C(=O)C5(C)C)cn4)cc3)CC2)C(C)(C)C)cc1` [Compound A69], with 0.0394 µM; and `Cc1ncsc1-c1ccc(CNC(=O)[C@@H]2C[C@@H](O)CN2C(=O)[C@@H](NC(=O)Cc2ccc(C(=O)Nc3ccc(-c4ncc(N5C(=S)N(c6ccc(C#N)c(C(F)(F)F)c6F)C(=O)C5(C)C)cc4F)c(C(F)(F)F)c3)cc2)C(C)(C)C)cc1` [Compound A256], with 0.119 µM.
Then `Cc1cc(C(C(=O)N2C[C@H](O)C[C@H]2C(=O)N[C@@H](CC(=O)N2CCC(C#Cc3ccc(N4C(=S)N(c5ccc(C#N)c(C(F)(F)F)c5F)C(=O)C4(C)C)cn3)CC2)c2ccc(-c3scnc3C)cc2)C(C)C)on1` (stereo partly drawn) [Compound A173], with 0.0781 µM; and `CC1(C)C(=O)N(c2ccc(C#N)c(C(F)(F)F)c2F)C(=S)N1c1ccc([C@@H]2C[C@H]2C(=O)NCCCCNC(=O)COc2cccc3c2C(=O)N(C2CCC(=O)NC2=O)C3=O)nc1` (stereo partly drawn) [Compound A28], with > 2 µM.
Then `CC(C)(C)[C@H](NC(=O)COCCCCOc1ccc(-c2ncc(N3C(=S)N(c4ccc(C#N)c(C(F)(F)F)c4F)C(=O)C3(C)C)cc2F)c(C(F)(F)F)c1)C(=O)N1C[C@H](O)C[C@H]1C(=O)NCc1cnco1` [Compound A219], with 0.589 µM; and `Cc1cc(C(C(=O)N2C[C@H](O)C[C@H]2C(=O)N[C@@H](CC(=O)NCCN2CCC(Oc3ccc(-c4ncc(N5C(=S)N(c6ccc(C#N)c(C(F)(F)F)c6F)C(=O)C5(C)C)cc4F)cc3F)CC2)c2ccc(-c3scnc3C)cc2)C(C)C)on1` (stereo partly drawn) [Compound A186], with 0.087 µM; and `Cc1ncsc1-c1ccc(CNC(=O)[C@@H]2C[C@@H](O)CN2C(=O)[C@@H](NC(=O)COCC(F)C(F)COc2ccc(-c3ccc(N4C(=S)N(c5ccc(C#N)c(C(F)(F)F)c5F)C(=O)C4(C)C)cn3)cc2)C(C)(C)C)cc1` (stereo partly drawn) [Compound A169], with 0.0926 µM.
For `Cc1ncsc1-c1ccc(CNC(=O)[C@@H]2C[C@@H](O)CN2C(=O)[C@@H](NC(=O)C2CCN(C3CCN(C(=O)c4ccc(-c5ccc(N6C(=S)N(c7ccc(C#N)c(C(F)(F)F)c7F)C(=O)C6(C)C)cn5)cc4)CC3)CC2)C(C)(C)C)cc1` [Compound A61], the DC50 was 0.268 µM.
To `CC1(C)C(=O)N(c2ccc(C#N)c(C(F)(F)F)c2F)C(=S)N1c1cnc(-c2ccc(OC3CCN(C(=O)COc4cccc5c4C(=O)N(C4CCC(=O)NC4=O)C5=O)CC3)c(F)c2)c(F)c1` (stereo not drawn) [Compound A43] belongs 0.0883 µM; to `Cc1ncsc1-c1ccc(CNC(=O)[C@@H]2C[C@@H](O)CN2C(=O)[C@@H](NC(=O)CCc2ccc(C(=O)Nc3ccc(-c4ccc(N5C(=S)N(c6ccc(C#N)c(C(F)(F)F)c6F)C(=O)C5(C)C)cn4)cc3)cc2)C(C)(C)C)cc1` [Compound A252], 0.0959 µM; to `Cc1ncsc1-c1ccc(CNC(=O)[C@@H]2C[C@@H](O)CN2C(=O)[C@@H](NC(=O)CCN2CCN(C(=O)c3ccc(-c4ccc(N5C(=S)N(c6ccc(C#N)c(C(F)(F)F)c6F)C(=O)C5(C)C)cn4)cc3)CC2)C(C)(C)C)cc1` [Compound A58], 0.133 µM.
Then `Cc1cc(C(C(=O)N2C[C@H](O)C[C@H]2C(=O)N[C@@H](CC(=O)NCCCOc2ccc(-c3ncc(N4C(=S)N(c5ccc(C#N)c(C(F)(F)F)c5F)C(=O)C4(C)C)cc3F)cc2F)c2ccc(-c3scnc3C)cc2)C(C)C)on1` (stereo partly drawn) [Compound A172], with 0.17 µM; and `Cc1ncsc1-c1ccc(CNC(=O)[C@@H]2C[C@@H](O)CN2C(=O)[C@@H](NC(=O)COCCC(F)(F)COc2ccc(-c3ncc(N4C(=S)N(c5ccc(C#N)c(C(F)(F)F)c5F)C(=O)C4(C)C)cc3F)c(C(F)(F)F)c2)C(C)(C)C)cc1` [Compound A167], with 0.204 µM; and `CC(C)(C)[C@H](NC(=O)COCCCCOc1ccc(-c2ncc(N3C(=S)N(c4ccc(C#N)c(C(F)(F)F)c4F)C(=O)C3(C)C)cc2F)cc1F)C(=O)N1C[C@H](O)C[C@H]1C(=O)NCc1ccc(C(N)=O)cc1` [Compound A119], with 0.0072 µM.
To `CC(C)(C)[C@H](NC(=O)COCCCCOc1ccc(-c2ncc(N3C(=S)N(c4ccc(C#N)c(C(F)(F)F)c4F)C(=O)C3(C)C)cc2F)c(C(F)(F)F)c1)C(=O)N1C[C@H](O)C[C@H]1c1nc(-c2ccccc2)c[nH]1` [Compound A202] belongs 0.661 µM; to `CC(C)(C)[C@H](NC(=O)COCCCCOc1ccc(-c2ccc(N3C(=S)N(c4ccc(C#N)c(C(F)(F)F)c4F)C(=O)C3(C)C)cn2)cn1)C(=O)N1C[C@H](O)C[C@H]1C(=O)NCc1ccc(C(N)=O)cc1` [Compound A127], 0.0893 µM.
In turn, `CC1(C)C(=O)N(c2ccc(C#N)c(C(F)(F)F)c2F)C(=S)N1c1ccc(-c2ccc(OCCNC(=O)COc3cccc4c3C(=O)N(C3CCC(=O)NC3=O)C4=O)cc2)cc1` (stereo not drawn) [Compound A22] returned a DC50 of 0.0737 µM.
To `CC(C)(C)[C@H](NC(=O)COCCCCOc1ccc(-c2ccc(N3C(=S)N(c4ccc(C#N)c(C(F)(F)F)c4F)C(=O)C3(C)C)cn2)cn1)C(=O)N1C[C@H](O)C[C@H]1C(=O)NCc1ccccc1` [Compound A128] belongs 0.124 µM.
To `Cc1cc(C(C(=O)N2C[C@H](O)C[C@H]2C(=O)N[C@@H](CC(=O)N2CCC(Oc3ccc(-c4ncc(N5C(=S)N(c6ccc(C#N)c(C(F)(F)F)c6F)C(=O)C5(C)C)cc4F)cc3F)CC2)c2ccc(-c3scnc3C)cc2)C(C)C)on1` (stereo partly drawn) [Compound A178] belongs 0.0905 µM.
